Source: ChEMBL document CHEMBL4483862, “Open-source discovery of chemical leads for next-generation chemoprotective antimalarials” (2018)

Tested on: Plasmodium berghei
Assay: Luciferase/luciferin-expressing antifolate-resistant parasites were used to infect a culture of HepG2 cells that were pre-incubated with compounds. Infected hepatocytes emit light due to the luciferase reaction. Assay results are presented as the percent inhibition of light emission compared to control. […]
Format: functional
Conditions: sporozoite; for IC50: read-out: LUCIFERASE INFECTION ASSAY - IC50; for IC90: read-out: LUCIFERASE INFECTION ASSAY - IC90

| Compound | IC50 [µM] | IC90 [µM] |
| --- | --- | --- |
| CCOC(=O)c1sc([S+](C)[O-])c2c1CCc1conc1-2 (stereo not drawn) | > 10.6 | > 10.6 |
| Clc1cccc(Sc2ccc(-c3ccccn3)s2)c1 | > 10.9 | > 10.9 |
| COC(=O)c1c(C(=O)OC)c2n(c1C)CCS2 | > 12.9 | > 12.9 |
| CCOC(=O)c1ccc(-n2sccc2=O)cc1 | > 13.2 | > 13.2 |
| Nc1nc2c(c(C(F)(F)F)n1)CCc1ccccc1-2 | > 12.4 | > 12.4 |
| O=C(Nc1ccc(OC(F)(F)F)cc1)Nc1cc(-c2cccs2)n[nH]1 | > 8.96 | > 8.96 |
| CC1(C)CCc2cc(/C=N/OC(=O)Nc3ccc(OC(F)(F)F)cc3)ccc2O1 | > 8.08 | > 8.08 |
| Cc1cc2ncc(-c3ccnc(SCC(=O)c4ccc(Cl)cc4)n3)c(C)n2n1 | > 8.05 | > 8.05 |
| CCO/C(C)=N\OC(=O)c1c(-c2c(Cl)cccc2Cl)noc1C | > 9.24 | > 9.24 |
| CCCCCNS(=O)(=O)c1cccc2c(N)cccc12 | 3.76 | > 11.3 |
| CC(C)c1ccc(N/N=C/c2cc(C#Cc3ccccc3)cs2)cc1 | > 9.58 | > 9.58 |
| O=C(CSCCCN1CCN(c2cccc(Cl)c2)CC1)N/N=C/c1ccc(Cl)cc1 | > 7.09 | > 7.09 |
| Cn1c(-c2cncc(C#Cc3ccccc3)c2)n[nH]c1=S | > 11.3 | > 11.3 |
| CSc1sc(C(N)=S)c(C)c1C(C)=O | > 13.4 | > 13.4 |
| N=C(N)SCc1csc(-c2ccc(Br)cc2)n1 | > 9.05 | > 9.05 |
| CCOC(=O)C1=C(Nc2ccc(OS(=O)(=O)c3ccc(Cl)cc3)cc2)C(=O)N(C(C)(C)C)C1 | > 6.69 | > 6.69 |
| O=C(CSCCCN1CCN(c2cccc(Cl)c2)CC1)N/N=C/c1ccccc1 | > 7.66 | > 7.66 |
| CSc1sc(-c2cc[nH]n2)c(-c2ccccc2)c1C#N | > 11.1 | > 11.1 |
| O=c1c2ccccc2c(-c2ccc(F)cc2F)nn1-c1ccccc1 | > 9.87 | > 9.87 |
| CSc1sc(-c2ccon2)c(-c2ccccc2)c1C#N | > 11.1 | > 11.1 |
| O=S(=O)(c1cccs1)n1ccc(-c2ccc3c(c2)CCO3)n1 | > 9.93 | > 9.93 |
| COc1ccc(NC=C2C(=O)CC(c3cccs3)CC2=O)cc1 (stereo not drawn) | > 10.1 | > 10.1 |
| O=C(NC(=O)c1cnn2c(C(F)(F)F)cc(C(F)(F)F)nc12)Nc1ccc(Cl)cc1 | > 7.31 | > 7.31 |

| Compound | IC50 [µM] | IC90 [µM] |
| --- | --- | --- |
| Cn1nc(-c2ccc(/C=N/NC(=O)c3ccc(Cl)cc3Cl)s2)cc1C(F)(F)F | > 7.38 | > 7.38 |
| N=S(=O)(c1ccc(Cl)cc1)c1cccs1 (stereo not drawn) | > 12.8 | > 12.8 |
| O=C(COc1ccccc1CSc1ccc(Cl)cc1)N/N=C/c1ccccc1Cl | > 7.41 | > 7.41 |
| CNC(=O)NC(=O)c1sc(SC)c(-c2ccon2)c1C | > 10.6 | > 10.6 |
| O=[N+]([O-])c1ccsc1Oc1ccc(Cl)cc1Cl | > 11.4 | > 11.4 |
| Cn1nc(-c2ccc(/C=C(\C#N)S(C)(=O)=O)s2)cc1C(F)(F)F | > 9.13 | > 9.13 |
| O=C(N/N=C/c1cc(Cl)cc(Cl)c1O)N/N=C/c1cc(Cl)cc(Cl)c1O | > 7.57 | > 7.57 |
| COC(=O)C1=C(Nc2ccc(OS(=O)(=O)c3ccc(F)cc3F)cc2)CSC1 | > 7.72 | > 7.72 |
| O=[N+]([O-])c1cc(C(F)(F)F)ccc1N/N=C1\CCCCC1CCS(=O)(=O)c1ccc(Cl)cc1 (stereo not drawn) | > 6.55 | > 6.55 |
| O=C(NCCSCc1ccc2nonc2c1)c1ccc(Cl)cc1Cl | > 8.63 | > 8.63 |
| CCOC(=O)COc1ccccc1/C=C(/C#N)S(=O)(=O)c1ccccc1 | > 8.89 | > 8.89 |
| O=C1NC(=O)N2CSCC12 (stereo not drawn) | > 20.9 | > 20.9 |
| N#CC(=C1SCCCCS1)S(=O)(=O)c1ccccc1 | > 10.6 | > 10.6 |
| COc1cc(C(F)(F)F)nc2ccc(C#CCOC(=O)c3ccccc3Cl)cc12 | > 7.86 | > 7.86 |
| O=S(=O)(Nc1cccc(C(F)(F)F)c1)c1ccc(S(=O)(=O)c2ncc(C(F)(F)F)cc2Cl)s1 | > 5.99 | > 5.99 |
| CC1(C)CC(=O)c2c(SCCOC(=O)Nc3ccccc3)sc(C#N)c2C1 | > 8.24 | > 8.24 |
| COc1ccc(CSc2nnc(CSc3cccs3)n2C)cc1 | > 9.08 | > 9.08 |
| O=S(=O)(CCSc1ccc(C(F)(F)F)cn1)c1ccc(OC(F)(F)F)cc1 | > 7.65 | > 7.65 |
| O=C(NNC(=O)c1ccc(CSc2ccc(C(F)(F)F)cn2)o1)c1ccc(Cl)cc1 | > 7.24 | > 7.24 |
| CC(=O)c1ccc(C#Cc2ccccc2)s1 | > 14.6 | > 14.6 |
| O=S(=O)(c1ccc(Br)s1)N1CCC(C(c2ccccc2)c2ccccc2)CC1 | > 6.93 | > 6.93 |
| CSc1nccc(-c2sc(SC)c3c2CC(C)(C)CC3=O)n1 | > 9.41 | > 9.41 |
| O=C(Nc1ccc(OC(F)(F)F)cc1)N1CCN(c2cc(C(F)(F)F)nc3ccccc23)CC1 | > 6.81 | > 6.81 |

| Compound | IC50 [µM] | IC90 [µM] |
| --- | --- | --- |
| C=S(=O)(N/C=C1/C(=O)c2ccccc2N(C)S1(=O)=O)c1ccccc1 (stereo not drawn) | > 8.77 | > 8.77 |
| O=C(NNc1cc(C(F)(F)F)nc2ccccc12)Nc1ccc(Cl)cc1 | > 8.67 | > 8.67 |
| CC(=O)c1sc(SCCS(=O)(=O)c2ccccc2)c2c1CC(C)(C)CC2=O | > 7.81 | > 7.81 |
| Cc1cc2ncc(-c3ccnc(SCC(=O)C(C)(C)C)n3)c(C)n2n1 | > 9.28 | > 9.28 |
| CCOC(=O)c1sc(SC)c2c1CCc1conc1-2 | > 11.2 | > 11.2 |
| NNC(=O)COc1ccccc1CSc1ccc(Cl)cc1 | > 10.2 | > 10.2 |
| O=C(NC(=S)Nc1ccc(F)cc1)c1cnn2c(C(F)(F)F)cc(C(F)(F)F)nc12 | > 7.31 | > 7.31 |
| Cc1[nH]c2ccccc2c1Sc1ccc(Cl)cc1 | > 12.1 | > 12.1 |
| O=C1CCC(c2ccccc2)C(=O)/C1=N\Nc1ccccc1Cl (stereo not drawn) | > 10.1 | > 10.1 |
| Cn1c(Sc2sccc2[N+](=O)[O-])nnc1C(F)(F)F | > 10.6 | > 10.6 |
| O=C(Nc1ccc(Cl)cc1)O/N=C\c1ccc(C#Cc2ccccc2)cc1 | > 8.8 | > 8.8 |
| NC(=S)CCOC1CCN(Cc2ccccc2)CC1 | > 11.9 | > 11.9 |
| O=C1C=C(SCC(=O)c2ccc([N+](=O)[O-])cc2)SC(c2ccccc2Cl)C1 (stereo not drawn) | > 7.86 | > 7.86 |
| CSc1sc(Cl)c2c1/C(=N\O)CC(C)(C)C2 | > 12 | > 12 |
| Clc1ccc(N/N=C/c2sccc2Oc2ccccc2)cc1 | > 10 | > 10 |
| N#Cc1c(OCC(F)(F)F)ccc(Sc2ccc(C(F)(F)F)cn2)c1OCC(F)(F)F | 5.5 | > 6.93 |
| c1ccn(C2CCNCC2)c1 | > 22 | > 22 |
| O=C(CSc1ccc(C(F)(F)F)cn1)Nc1cc(C(F)(F)F)cc(C(F)(F)F)c1 | > 7.36 | > 7.36 |
| C=S(NC(=O)Nc1ccc(Cl)cc1)c1sc(Cl)c2c1C(=O)CCC2 (stereo not drawn) | > 8.22 | > 8.22 |
| CNc1ccc(CSc2ccc(C(F)(F)F)cn2)cc1C(F)(F)F | > 9.01 | > 9.01 |
| CNc1ncnc(NNC(=O)Nc2ccc(OC(F)(F)F)cc2)c1[N+](=O)[O-] | 3.31 | > 8.52 |
| CO/N=C1\CCCc2c(C(=O)NNS(=O)(=O)c3ccccc3Cl)sc(SC)c21 | > 7.17 | > 7.17 |
| C=S(=O)(NS(=O)(=O)c1ccc2c(c1)CCN2C(C)=O)c1ccc(C)cc1 (stereo not drawn) | > 8.41 | > 8.41 |

| Compound | IC50 [µM] | IC90 [µM] |
| --- | --- | --- |
| CSc1ncc2c(n1)CC(C)(C)C/C2=N\OC(=O)c1cccc(C(F)(F)F)c1 | > 8.06 | > 8.06 |
| CCOC(=O)c1sc(N(NC(=O)c2ccc(Cl)cc2)C(=O)c2ccc(Cl)cc2)c2c1CC(C)(C)CC2=O | 1.81 | 2.02 |
| Cn1nc(-c2ccc(S(=O)(=O)Oc3cccc([N+](=O)[O-])c3)s2)cc1C(F)(F)F | > 7.61 | > 7.61 |
| CSc1sc(C(=O)N/N=C/c2ccc(Cl)cc2)c2c1C1(CCC2)SCCS1 | > 7.25 | > 7.25 |
| CN(C)n1cccc1/C=C(\C#N)S(C)(=O)=O | > 13.8 | > 13.8 |
| O=C(COc1ccccc1SCc1ccc(Cl)cc1)NNC(=O)c1ccccc1Cl | > 7.15 | > 7.15 |
| Cc1nc2c(/C(N)=N/OCc3cccc(Cl)c3)cnn2c(C)c1C | > 9.6 | > 9.6 |
| CCOC(=O)c1ccc(Oc2sccc2[N+](=O)[O-])cc1 | > 11.3 | > 11.3 |
| O=S(=O)(Oc1cccc(C(F)(F)F)c1)c1cc(S(=O)(=O)c2ccccc2)cs1 | > 7.36 | > 7.36 |
| CCOC(=O)c1sc(N2CCCC2)c2c1CC(C)(C)CC2=O | > 10.3 | > 10.3 |
| O=S(=O)(Oc1ccc(Cl)cc1)c1cc(S(=O)(=O)Oc2ccc(Cl)cc2)c(Cl)s1 | > 6.6 | > 6.6 |
| Cc1nn(Cc2nnc(SCc3cccc(C(F)(F)F)c3)o2)c(C)c1Br | > 7.38 | > 7.38 |
| CC(C)(C)c1ccc(C(=O)NNC(=O)c2ccc(CSc3ccc(C(F)(F)F)cn3)o2)cc1 | > 6.91 | > 6.91 |
| CC(=O)c1sc(SCCS(=O)(=O)c2ccc(C)cc2)c2c1CC(C)(C)CC2=O | > 7.56 | > 7.56 |
| CC(C)(C)c1csc(-c2ccc(/C=N/OC(=O)Nc3ccc(Cl)cc3)cc2)n1 | > 7.97 | > 7.97 |
| O=C(COc1ccccc1SCc1ccc(Cl)cc1)NNC(=O)c1ccc(Cl)cc1 | > 7.15 | > 7.15 |
| O=C1CCC(c2ccccc2)C(=O)/C1=N\Nc1ccc(Cl)cc1 (stereo not drawn) | > 10.1 | > 10.1 |
| O=S1(=O)CC(S(=O)(=O)c2cccs2)c2ccccc21 (stereo not drawn) | > 10.5 | > 10.5 |
| O=C(NCCSCc1csc2ccc(Cl)cc12)Nc1ccc(Cl)cc1 | > 8.02 | > 8.02 |
| N#Cc1cnc(S)nc1N | > 21.7 | > 21.7 |
